These are literature values, as cited in publication PMC5677520 (Journal of medicinal chemistry, 2017).

For the series the following is noted: result in words.

For the compound `CC[C@H](C)[C@@H]1NC(=O)c2csc(n2)[C@@H](C)NC(=O)[C@H]2N=C(O[C@@H]2C)[C@H](C(C)C)NC(=O)c2csc(n2)[C@@H](Cc2ccccc2)NC(=O)[C@H]2N=C1O[C@@H]2C` [patellamide C], the passive permeabilities entry is “druglike”.

Turning to cylindrocyclin, the passive permeabilities result is on record as “druglike”.
